Laboratory results taken from patent publication US8962681B2, “Use of aminoacetonitrile derivatives against endoparasites” (Zoetis LLC, priority 2011, dated 2015).

tested on: Dirofilaria immitis microfilariae; test: in vitro microwell motility assay against heartworm microfilariae; format: cell-based; details: microfilaria from canine blood, 384 well plate, 72 hours incubation at 37° C. and 5% CO2, LemnaTec Scanalyzer

Row | SMILES | ED50 (dose at which the overall microfilaria motility was reduced by 50% compared to that of an untreated control) [µM]
1 | CC(C#N)(COc1c(F)cc(C#N)cc1C(F)(F)F)NC(=O)c1ccc(S(F)(F)(F)(F)F)cc1 (stereo not drawn) [test compound 26, N-{1-cyano-2-[4-cyano-2-fluoro-6-(trifluoromethyl)phenoxy]-1-methylethyl}-4-(pentafluorothio)benzamide] | 10
2 | CC(C#N)(COc1c(F)cc(F)cc1C#N)NC(=O)c1ccc(S(F)(F)(F)(F)F)cc1 (stereo not drawn) [test compound 54, N-[1-cyano-2-(2-cyano-4,6-difluorophenoxy)-1-methylethyl]-4-(pentafluorothio)-benzamide] | 33
3 | COc1ccc(Oc2ccc(C#N)cc2OCC(C)(C#N)NC(=O)c2ccc(S(F)(F)(F)(F)F)cc2)c(Cl)c1 (stereo not drawn) [test compound 75, N-{2-[2-(2-chloro-4-methoxyphenoxy)-5-cyanophenoxy]-1-cyano-1-methylethyl}-4-(pentafluorothio)benzamide] | 3.3
4 | CC(C#N)(COc1cc(C#N)ccc1Cl)NC(=O)c1ccc(S(F)(F)(F)(F)F)cc1 (stereo not drawn) [test compound 4, N-[2-(2-chloro-5-cyanophenoxy)-1-cyano-1-methylethyl]-4-(pentafluorothio)benzamide] | 10
5 | CC(C#N)(COc1ccc(-c2cccnc2)cc1C(F)(F)F)NC(=O)c1ccc(S(F)(F)(F)(F)F)cc1 (stereo not drawn) [test compound 82, N-{1-cyano-1-methyl-2-[4-pyridin-3-yl-2-(trifluoromethyl)phenoxy]ethyl}-4-(pentafluorothio)benzamide] | 10
6 | CC(C#N)(COc1cc(C#N)ccc1Br)NC(=O)c1ccc(S(F)(F)(F)(F)F)cc1 (stereo not drawn) [test compound 27, N-[2-(2-bromo-5-cyanophenoxy)-1-cyano-1-methylethyl]-4-(pentafluorothio)-benzamide] | 3.3
7 | CC(C#N)(COc1cc(C#N)ccc1Oc1ccc(Cl)cc1)NC(=O)c1ccc(S(F)(F)(F)(F)F)cc1 (stereo not drawn) [test compound 64, N-{2-[2-(4-chlorophenoxy)-5-cyanophenoxy]-1-cyano-1-methylethyl}-4-(pentafluorothio)benzamide] | 1
8 | CC(C#N)(COc1cc(C#N)ccc1Oc1ccc(F)cc1)NC(=O)c1ccc(S(F)(F)(F)(F)F)cc1 (stereo not drawn) [test compound 61, N-{1-cyano-2-[5-cyano-2-(4-fluorophenoxy)phenoxy]-1-methylethyl}-4-(pentafluorothio)benzamide] | 1
9 | CC(C#N)(COc1cc(C#N)ccc1Cl)NC(=O)c1ccc(S(F)(F)(F)(F)F)cc1 (stereo not drawn) [test compound 57, N-[2-(2-chloro-5-cyanophenoxy)-1-cyano-1-methylethyl]-4-(pentafluorothio)-benzamide] | 10
10 | CC(C#N)(NC(=O)c1ccc(S(F)(F)(F)(F)F)cc1)C1Cc2cc(C#N)cc(C(F)(F)F)c2O1 (stereo not drawn) [test compound 83, N-{1-cyano-1-[5-cyano-7-(trifluoromethyl)-2,3-dihydro-1-benzofuran-2-yl]ethyl}-4-(pentafluorothio)benzamide] | 10
11 | CC(C#N)(COc1cccc(Cl)c1C(F)(F)F)NC(=O)c1ccc(S(F)(F)(F)(F)F)cc1 (stereo not drawn) [test compound 50, N-{2-[3-chloro-2-(trifluoromethyl)phenoxy]-1-cyano-1-methylethyl}-4-(pentafluorothio)benzamide] | 33
12 | Cc1ccc(Oc2ccc(C#N)cc2OCC(C)(C#N)NC(=O)c2ccc(S(F)(F)(F)(F)F)cc2)c(Cl)c1 (stereo not drawn) [test compound 71, N-{2-[2-(2-chloro-4-methylphenoxy)-5-cyanophenoxy]-1-cyano-1-methylethyl}-4-(pentafluorothio)benzamide] | 1
13 | CC(C#N)(COc1ccc(Cl)cc1F)NC(=O)c1ccc(S(F)(F)(F)(F)F)cc1 (stereo not drawn) [test compound 20, N-[2-(4-chloro-2-fluorophenoxy)-1-cyano-1-methylethyl]-4-(pentafluorothio)-benzamide] | 10
14 | CC(C#N)(COc1cc(C#N)ccc1Oc1ccc(Cl)cc1F)NC(=O)c1ccc(S(F)(F)(F)(F)F)cc1 (stereo not drawn) [test compound 62, N-{2-[2-(4-chloro-2-fluorophenoxy)-5-cyanophenoxy]-1-cyano-1-methylethyl}-4-(pentafluorothio)benzamide] | 1
15 | Cc1ccc(Oc2ccc(C#N)cc2OCC(C)(C#N)NC(=O)c2ccc(S(F)(F)(F)(F)F)cc2)c(C)c1 (stereo not drawn) [test compound 72, N-{1-cyano-2-[5-cyano-2-(2,4-dimethylphenoxy)phenoxy]-1-methylethyl}-4-(pentafluorothio)benzamide] | 1
16 | CC(C#N)(COc1cc(C#N)ccc1Oc1ccc(F)cc1Cl)NC(=O)c1ccc(S(F)(F)(F)(F)F)cc1 (stereo not drawn) [test compound 63, N-{2-[2-(2-chloro-4-fluorophenoxy)-5-cyanophenoxy]-1-cyano-1-methylethyl}-4-(pentafluorothio)benzamide] | 3.3
17 | CC(C#N)(COc1cc(Cl)ccc1Cl)NC(=O)c1ccc(S(F)(F)(F)(F)F)cc1 (stereo not drawn) [test compound 39, N-[1-cyano-2-(2,5-dichlorophenoxy)-1-methylethyl]-4-(pentafluorothio)benzamide] | 10
18 | CC(C#N)(COCc1ccc(C(F)(F)F)cc1)NC(=O)c1ccc(S(F)(F)(F)(F)F)cc1 (stereo not drawn) [test compound 84, N-(1-cyano-1-methyl-2-{[4-(trifluoromethyl)benzyl]oxy}ethyl)-4-(pentafluorothio)benzamide] | 3.3
19 | COc1ccc(OCC(C)(C#N)NC(=O)c2ccc(S(F)(F)(F)(F)F)cc2)cc1C#N (stereo not drawn) [test compound 41, N-[1-cyano-2-(3-cyano-4-methoxyphenoxy)-1-methylethyl]-4-(pentafluorothio)-benzamide] | 33
20 | CC(C#N)(COc1cc(F)c(F)cc1Br)NC(=O)c1ccc(S(F)(F)(F)(F)F)cc1 (stereo not drawn) [test compound 58, N-[2-(2-bromo-4,5-difluorophenoxy)-1-cyano-1-methylethyl]-4-(pentafluorothio)benzamide] | 33
21 | COc1cc(F)c(Oc2ccc(C#N)cc2OCC(C)(C#N)NC(=O)c2ccc(S(F)(F)(F)(F)F)cc2)c(F)c1 (stereo not drawn) [test compound 77, N-{1-cyano-2-[5-cyano-2-(2,6-difluoro-4-methoxyphenoxy)phenoxy]-1-methylethyl}-4-(pentafluorothio)benzamide] | 10
22 | CC(C#N)(COc1cc(C#N)ccc1OC(F)(F)F)NC(=O)c1ccc(S(F)(F)(F)(F)F)cc1 (stereo not drawn) [test compound 55, N-{1-cyano-2-[5-cyano-2-(trifluoromethoxy)phenoxy]-1-methylethyl}-4-(pentafluorothio)benzamide] | 10
23 | CC(C#N)(COc1cc(C#N)ccc1Oc1ccc(C(F)(F)F)cc1)NC(=O)c1ccc(S(F)(F)(F)(F)F)cc1 (stereo not drawn) [test compound 67, N-(1-cyano-2-{5-cyano-2-[4-(trifluoromethyl)phenoxy]phenoxy}-1-methylethyl)-4-(pentafluorothio)benzamide] | 1
24 | CC(C#N)(COc1ccc(Cl)c(Cl)c1)NC(=O)c1ccc(S(F)(F)(F)(F)F)cc1 (stereo not drawn) [test compound 38, N-[1-cyano-2-(3,4-dichlorophenoxy)-1-methylethyl]-4-(pentafluorothio)benzamide] | 33
25 | CC(C#N)(COc1cc(Br)ccc1C#N)NC(=O)c1ccc(S(F)(F)(F)(F)F)cc1 (stereo not drawn) [test compound 36, N-[2-(5-bromo-2-cyanophenoxy)-1-cyano-1-methylethyl]-4-(pentafluorothio)-benzamide] | 10
26 | COc1cc(O)ccc1Oc1ccc(C#N)cc1OCC(C)(C#N)NC(=O)c1ccc(S(F)(F)(F)(F)F)cc1 (stereo not drawn) [test compound 79, N-{1-cyano-2-[5-cyano-2-(4-hydroxy-2-methoxyphenoxy)phenoxy]-1-methylethyl}-4-(pentafluorothio)benzamide] | 10
27 | CC(C#N)(COc1cc(C#N)ccc1Oc1ccc(Cl)cc1Cl)NC(=O)c1ccc(S(F)(F)(F)(F)F)cc1 (stereo not drawn) [test compound 65, N-{1-cyano-2-[5-cyano-2-(2,4-dichlorophenoxy)phenoxy]-1-methylethyl}-4-(pentafluorothio)benzamide] | 3.3
28 | CC(C#N)(COc1ccc(F)cc1Br)NC(=O)c1ccc(S(F)(F)(F)(F)F)cc1 (stereo not drawn) [test compound 31, N-[2-(2-bromo-4-fluorophenoxy)-1-cyano-1-methylethyl]-4-(pentafluorothio)-benzamide] | 10
29 | Cc1cc(C#N)ccc1OCC(C)(C#N)NC(=O)c1ccc(S(F)(F)(F)(F)F)cc1 (stereo not drawn) [test compound 40, N-[1-cyano-2-(4-cyano-2-methylphenoxy)-1-methylethyl]-4-(pentafluorothio)-benzamide] | 10
30 | CC(C#N)(Cc1ccc(C#N)cc1Cl)NC(=O)c1ccc(S(F)(F)(F)(F)F)cc1 (stereo not drawn) [test compound 90, N-[2-(2-chloro-4-cyanophenyl)-1-cyano-1-methylethyl]-4-(pentafluorothio)benzamide] | 33
